Laboratory results published in article PMC9960827, “Cloning and Characterization of Trypanosoma congolense and T. vivax Nucleoside Transporters Reveal the Potential of P1-Type Carriers for the Discovery of Broad-Spectrum Nucleoside-Based Therapeutics against Animal African Trypanosomiasis” (International Journal of Molecular Sciences, 2023).
Where two headings read alike, the source gives them in different places.

What was measured:
T. evansi = experiment: Alamar Blue (resazurin) assay, T. evansi; type: cell-based, Trypanosoma evansi; settings: resazurin; read-out: T. evansi EC50
Experimental: (§1) EC50 values were determined by plotting to an equation for a sigmoid curve with variable slope (GraphPad Prism 8). All values were the average of at least three independent determinations on different days.

T. congolense 6C3 = experiment: microbe, parasite or virus in culture; type: cell-based, Trypanosoma congolense; settings: for EC50: diminazene resistant strain, resazurin, read-out: T. congolense 6C3 EC50; for T. congolense 6C3 RF: resistance factor = EC50 (test strain)/EC50(control strain)
Experimental: as §1

T. congolense IL3000 = experiment: Alamar Blue (resazurin) assay, T. congolense IL3000; type: cell-based, Trypanosoma congolense; settings: BSF, resazurin; read-out: T. congolense IL3000 EC50
Experimental: as §1

T.b.b. B48 = experiment: Alamar Blue (resazurin) assay, T. b. brucei B48; type: cell-based, Trypanosoma brucei brucei; settings: multidrug-resistant strain, resazurin; read-out: T.b.b. B48 EC50
Experimental: as §1

L. mexicana Cas9 = experiment: Resazurin drug sensitivity assay, LmexCas9; type: cell-based, Leishmania mexicana; settings: resazurin, promastigotes; read-out: LmexCas9 EC50
Experimental: as §1

T. vivax = test system: T. vivax; design: method as in Mabille et al. [69]; settings: added for comparison only; ref Mabille et al. [69]; cited from earlier work
L. mexicana SUPKO+TvxNT3 = experiment: microbe, parasite or virus in culture; type: cell-based, Leishmania mexicana; settings: for SUPKO+TvxNT3 RF (SUPKO): Resistance Factor relative to SUPKO; for EC50: resazurin, promastigotes, read-out: SUPKO+TvxNT3 EC50
Experimental: as §1

L. mexicana SUPKO+TcoAT1 = experiment: microbe, parasite or virus in culture; type: cell-based, Leishmania mexicana; settings: for SUPKO+TcoAT1 RF (SUPKO): Resistance Factor relative to SUPKO; for EC50: resazurin, promastigotes, read-out: SUPKO+TcoAT1 EC50
Experimental: as §1

L. mexicana SUPKO = experiment: microbe, parasite or virus in culture; type: cell-based, Leishmania mexicana; settings: for SUPKO RF (Cas9): Resistance Factor = EC50(SUPKO)/EC50(Cas9); for EC50: resazurin, promastigotes, read-out: SUPKO EC50
Experimental: as §1

[1] = test system: human embryonic kidney (HEK) cells; experiment: Resazurin toxicity assay on human embryonic kidney cells; type: cell-based; settings: for SI T. congolense: selectivity index = EC50 (HEK cells)/EC50 (T. congolense); for SI T. equiperdum: selectivity index = EC50 (HEK cells)/EC50 (T. equiperdum); for SI T. evansi: selectivity index = EC50 (HEK cells)/EC50 (T. evansi)
Experimental: as §1

T. equiperdum = experiment: Alamar Blue (resazurin) assay, T. equiperdum; type: cell-based, Trypanosoma equiperdum; settings: resazurin; read-out: T. equiperdum EC50
Experimental: as §1

[2] = molecular target: T. congolense adenosine transporter; experiment: [3H]-adenosine uptake and its inhibition in T. congolense IL3000 bloodstream forms; type: cell-based, Trypanosoma congolense; settings: for Ki: 0.05 µM [3H]-adenosine, 30 s, IC50 converted to Ki, read-out: Ki on the transport of [3H]-adenosine; for ΔG0, Gibbs free energy of interaction: calculated from Km or Ki; for Ki values fold higher than those for the purines: inhibition of adenosine uptake
Experimental: (§2) Uptake assays using radiolabeled trypanocides and/or nucleosides were carried out as described previously. Briefly, parasite cultures were harvested, washed twice in assay buffer (33 mM HEPES, 98 mM NaCl, 4.6 mM KCl, 0.5 mM CaCl2, 0.07 mM MgSO4, 5.8 mM NaH3PO4, 0.03 mM MgCl2, 23 mM NaHCO3, 14 mM D-glucose, pH 7.3), then resuspended and adjusted to a density of 1 × 10^8 cells/mL in assay buffer. The radiolabeled permeant in the presence or absence of different concentrations of potential inhibitors reconstituted in 100 μL assay buffer was deposited on top of 250 μL oil mix in microcentrifuge tubes; 1 × 10^7 parasites in 100 μL assay buffer were added to the tube and incubated for a pre-determined interval. The reaction was stopped by the addition of 1 mL of a high concentration of ice-cold unlabeled substrate in assay buffer (‘stop solution’) and centrifugation, or by immediate centrifugation at […] as appropriate. The microcentrifuge tubes were flash-frozen, and the bottom of each tube containing the cell pellet was cut off and transferred to a scintillation vial. Cell pellets were lysed in 2% SDS, after which scintillation fluid (Scintlogic U, Lablogic) was added, followed by overnight incubation in the dark. Scintillation was measured in a 300SL (Hidex) scintillation counter (Hidex). All the assays were conducted in triplicate and analysis was carried out using Microsoft Excel and GraphPad Prism. All kinetic parameters were obtained on at least 3 separate occasions.
(§3) The dose-dependent uptake assay allowed for the affinity of nucleoside analogs to different nucleoside transporters to be determined by measuring the extent to which the analogs compete with and inhibit the uptake of radiolabel adenosine. This allowed for the determination of biochemical parameters such as Km and Vmax through the application of the Michaelis–Menten equation V0 = Vmax([substrate]/([substrate] + Km)). The 50% Inhibitory Concentration (IC50) of the purines and pyrimidines and their analogs was determined from non-linear regression to sigmoid curves with variable slope (Prism 8), and the IC50 of the inhibitor and the Km of the labeled permeant were then used to calculate the inhibition constant (Ki) of the analogs through the Cheng–Prusoff equation: Ki = IC50/(1 + (L/Km)), where L denotes the radiolabel concentration. The calculated Ki was in turn used to determine the Gibbs free energy (ΔG^0) of the inhibitor–transporter interaction using the equation: ΔG^0 = -RTln(Ki), where R represents the gas constant and T symbolizes the absolute temperature in Kelvin [104].

TcoAT1 = type: cell-based, Trypanosoma congolense; settings: for Ki: 0.05 µM [3H]-adenosine, 10 s, IC50 converted to Ki, read-out: Ki on the transport of [3H]-adenosine; for ΔG0: Gibbs free energy of binding, from Km or Ki; for δ(ΔG0): loss of Gibbs free energy of binding relative to the parent nucleoside
Text: (§4) The information for the T. congolense adenosine transporter (TcoAT1) and four putative T. vivax nucleoside transporters was obtained in the TritrypDB (tritrypdb.org/tritrypdb) genome database. Primers were designed to flank each gene upstream of the 5′ end (forward) and downstream of the 3′ end (reverse) as described (primer sequences in Supplementary Table S2). Following amplification from the genomic DNA of T. congolense or T. vivax, DNA for each extracted gene was ligated into the pNUS-HcN expression vector doubly digested with NdeI using the NEBuilder kit according to the manufacturer’s instructions (New England Biolabs). Construct was transformed into competent E. coli cells, and ligation was confirmed by restriction enzyme digestion of isolated plasmid DNA followed by Sanger sequencing (Source BioScience, Nottingham, UK). Confirmed plasmids were then transfected into L. mexicana cell line in which both NT1 and NT2 were doubly knocked out (SUPKO) and derived from L. mexicana Cas9 [64] as described. Clones grown in medium containing 50 μg/mL neomycin (G418) were collected for further confirmation by PCR with genomic DNA using a forward primer of the transporter gene and a reverse primer of the plasmid.
as §2, §3

TvxNT3 = TvxNT3 (Trypanosoma vivax, UniProt F9WV62); experiment: cell-based; type: cell-based; settings: for ΔG0: Gibbs free energy of interaction, from Km or Ki; for δ(ΔG0): difference in ΔG0 relative to the parent purine (adenosine or inosine)
Text: as §4, §2, §3

[3] = molecular target: T. b. brucei P1 (TbP1/NT2); settings: cited from earlier work; for Ki: T. b. brucei bloodstream forms, read-out: Tbb P1 Ki
[4] = resazurin, 96 well plates, read-out: HEK EC50

Sequence of TvxNT3 (F9WV62 entry or part of it): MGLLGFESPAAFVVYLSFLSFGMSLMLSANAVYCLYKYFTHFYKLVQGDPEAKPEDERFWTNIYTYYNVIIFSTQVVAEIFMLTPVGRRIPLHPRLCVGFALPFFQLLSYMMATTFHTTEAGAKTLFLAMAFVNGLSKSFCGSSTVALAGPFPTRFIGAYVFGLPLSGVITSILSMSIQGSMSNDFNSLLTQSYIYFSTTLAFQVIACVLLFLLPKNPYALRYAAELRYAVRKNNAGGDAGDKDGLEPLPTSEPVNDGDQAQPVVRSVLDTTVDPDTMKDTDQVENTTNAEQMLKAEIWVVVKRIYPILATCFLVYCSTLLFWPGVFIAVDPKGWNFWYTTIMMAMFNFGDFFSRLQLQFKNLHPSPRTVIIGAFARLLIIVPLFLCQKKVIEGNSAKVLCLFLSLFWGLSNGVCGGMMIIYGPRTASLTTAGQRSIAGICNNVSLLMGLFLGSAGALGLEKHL

Compound	EC50 (T. evansi) [µM]	EC50 (T. congolense 6C3) [µM]	T. congolense 6C3 RF (T. congolense 6C3)	EC50 (T. congolense IL3000) [µM]	EC50 (T.b.b. B48) [µM]	EC50 (L. mexicana Cas9) [µM]	EC50 (T. vivax) [µM]	EC50 (L. mexicana SUPKO+TvxNT3) [µM]	SUPKO+TcoAT1 RF (SUPKO) (L. mexicana SUPKO+TcoAT1)	EC50 (L. mexicana SUPKO+TcoAT1) [µM]	SUPKO RF (Cas9) (L. mexicana SUPKO)	EC50 (L. mexicana SUPKO) [µM]	EC50 [1, 4] [µM]	SI T. congolense [1]	SI T. equiperdum [1]	SI T. evansi [1]	EC50 (T. equiperdum) [µM]	Ki [2] [µM]	ΔG0, Gibbs free energy of interaction [2] [kcal/mol]	Ki (TcoAT1) [µM]	also measured
Nc1ncnc2c1c(Cl)cn2[C@@H]1O[C@H](CO)[C@@H](O)[C@H]1O [FH3169]	0.62 ± 0.06	0.75 ± 0.14	0.87	0.86 ± 0.12	1.84 ± 0.33	0.23 ± 0.005	0.053 ± 0.007	15.9 ± 2.5	1.64	9.41 ± 0.56	67.7	15.4 ± 2.7	4.55 ± 0.19	5.3	37	7.4	0.12 ± 0.018				SUPKO+TvxNT3 RF (SUPKO) (L. mexicana SUPKO+TvxNT3): 0.97
Nc1ncnc2c1c(I)cn2[C@@H]1O[C@H](CO)C[C@H]1O [FH8496]	0.0037 ± 0.0012	0.003 ± 0.0002	0.56	0.0054 ± 0.001	0.024 ± 0.002	51.8 ± 10.3	0.056 ± 0.001	40 ± 9.2	>2.2	23.9 ± 5.6	1.01	52.6		902	3260	1340	0.0015 ± 0.0005	46.2 ± 1.7	-5.9	135 ± 11	SUPKO+TvxNT3 RF (SUPKO) (L. mexicana SUPKO+TvxNT3): >1.2; EC50 [1]: 4.91 ± 0.03 µM
Nc1ncnc2c1ccn2[C@H]1C[C@H](O)[C@@H](CO)O1 [FH10677]	> 100	10.9 ± 2.3	0.25	43.3 ± 14.5	38 ± 2.3		> 64						> 200	>4.6	>12		17.4 ± 2.3				
Nc1ncnc2c1c(Br)cn2[C@H]1C[C@H](O)[C@@H](CO)O1 [FH10679]	1.74 ± 0.53	0.31 ± 0.07	0.60	0.51 ± 0.09	1.04 ± 0.19		4.3 ± 0.9						> 200	>390	>3000	>115	0.067 ± 0.013				
Nc1ncnc2c1c(Br)cn2[C@@H]1O[C@H](CO)[C@@H](O)[C@H]1O [TH1003]	0.48 ± 0.06	0.52 ± 0.031	0.66	0.79 ± 0.14	1.4 ± 0.09	2.43 ± 0.14	0.74 ± 0.04	> 100	>1.4	71.1 ± 5	>41.2	> 100	2.37 ± 0.12	3.0	28	4.9	0.085 ± 0.026				
Cc1cn([C@H]2C[C@H](O)[C@@H](CO)O2)c(=O)[nH]c1=O [Thymidine]																		94.6 ± 11.5	-5.5	434 ± 46.4	ΔG0 (TvxNT3): -4.391 kcal/mol; δ(ΔG0) (TvxNT3): -3.587 kcal/mol; Ki values fold higher than those for the purines [2]: > 90 fold; Ki [3]: 44 ± 10 µM; Ki (TcoAT1; listed as TMD): 49.6 µM; ΔG0 (TcoAT1): -4.59 kcal/mol; δ(ΔG0) (TcoAT1): 4.113 kcal/mol
O=c1ccn([C@@H]2O[C@H](CO)[C@@H](O)[C@H]2O)c(=O)[nH]1 [Uridine]																		390 ± 9.1	-4.64	1470 ± 172	ΔG0 (TvxNT3): -4.285 kcal/mol; δ(ΔG0) (TvxNT3): -3.693 kcal/mol; Ki values fold higher than those for the purines [2]: > 90 fold; Ki [3]: 830 ± 86 µM; Tbb P1 ΔG0 [3]: -4.47 kcal/mol; Ki (TcoAT1; listed as URD): 147 µM; ΔG0 (TcoAT1): -3.87 kcal/mol; δ(ΔG0) (TcoAT1): 4.835 kcal/mol
